Data as given in ChEMBL document CHEMBL5055665, “Discovery of the Triazolo[1,5-a]Pyrimidine-Based Derivative WS-898 as a Highly Efficacious and Orally Bioavailable ABCB1 Inhibitor Capable of Overcoming Multidrug Resistance” (J Med Chem, 2021).
Activity calls are given as the source filed them. No cut-off for these calls is given here.

How the values were obtained:
[1] = tested on: KB 3-1; experiment: Reversal of resistance to paclitaxel-induced cytotoxicity in human KB 3-1 cells assessed as reversal fold at 2 uM preincubated for 4 hrs followed by paclitaxel addition and measured after 72 hrs by MTT assay relative to paclitaxel; assay type: functional; details: time 76 hrs
[2] = tested on: SW-620; experiment: Reversal of resistance to paclitaxel-induced cytotoxicity in human SW-620 cells assessed as reversal fold at 1 uM preincubated for 4 hrs followed by paclitaxel addition and measured after 72 hrs by MTT assay relative to paclitaxel; assay type: functional; details: time 76 hrs
[3] = tested on: SW-620; experiment: Antitumor activity against human SW-620/AD300 cells xenografted in BALB/c nude mouse assessed as increase in tumor cell apoptosis at 30 mg/kg/day, ig administered for 21 days in presence of paclitaxel by TUNEL staining based fluorescence microscopy; assay type: functional, organism-based; details: time 21.0 day
[4] = tested on: SW-620; experiment: Reversal of resistance to paclitaxel-induced cytotoxicity in human SW-620 cells assessed as reversal fold at 2 uM preincubated for 4 hrs followed by paclitaxel addition and measured after 72 hrs by MTT assay relative to paclitaxel; assay type: functional; details: time 76 hrs
[5] = tested on: KB-C2; experiment: Reversal of resistance to paclitaxel-induced cytotoxicity in human KB-C2 cells assessed as reversal fold at 2 uM preincubated for 4 hrs followed by paclitaxel addition and measured after 72 hrs by MTT assay relative to paclitaxel; assay type: functional; details: time 76 hrs
[6] = tested on: HEK293; experiment: Reversal of resistance to paclitaxel-induced cytotoxicity in human HEK293/ABCB1 cells assessed as reversal fold at 1 uM preincubated for 4 hrs followed by paclitaxel addition and measured after 72 hrs by MTT assay relative to paclitaxel; assay type: functional; details: time 76 hrs
[7] = tested on: Mus musculus; experiment: Toxicity in BALB/c mouse xenografted with human SW-620/AD300 cells assessed as mortality at 30 mg/kg/day, ig administered 21 days in presence of paclitaxel; assay type: organism-based; details: in vivo, po, 504 h, time 21 day
[8] = target: ATP-dependent translocase ABCB1 (Homo sapiens, UniProt P08183); experiment: Binding affinity to ABCB1 in human SW-620/AD300 cells assessed as thermal stabilization of protein at 2 uM incubated for 76 hrs by CETSA-based Western blot analysis; assay type: cell-based; details: sw-620, 76 h
Chain of ATP-dependent translocase ABCB1 (P08183 whole entry): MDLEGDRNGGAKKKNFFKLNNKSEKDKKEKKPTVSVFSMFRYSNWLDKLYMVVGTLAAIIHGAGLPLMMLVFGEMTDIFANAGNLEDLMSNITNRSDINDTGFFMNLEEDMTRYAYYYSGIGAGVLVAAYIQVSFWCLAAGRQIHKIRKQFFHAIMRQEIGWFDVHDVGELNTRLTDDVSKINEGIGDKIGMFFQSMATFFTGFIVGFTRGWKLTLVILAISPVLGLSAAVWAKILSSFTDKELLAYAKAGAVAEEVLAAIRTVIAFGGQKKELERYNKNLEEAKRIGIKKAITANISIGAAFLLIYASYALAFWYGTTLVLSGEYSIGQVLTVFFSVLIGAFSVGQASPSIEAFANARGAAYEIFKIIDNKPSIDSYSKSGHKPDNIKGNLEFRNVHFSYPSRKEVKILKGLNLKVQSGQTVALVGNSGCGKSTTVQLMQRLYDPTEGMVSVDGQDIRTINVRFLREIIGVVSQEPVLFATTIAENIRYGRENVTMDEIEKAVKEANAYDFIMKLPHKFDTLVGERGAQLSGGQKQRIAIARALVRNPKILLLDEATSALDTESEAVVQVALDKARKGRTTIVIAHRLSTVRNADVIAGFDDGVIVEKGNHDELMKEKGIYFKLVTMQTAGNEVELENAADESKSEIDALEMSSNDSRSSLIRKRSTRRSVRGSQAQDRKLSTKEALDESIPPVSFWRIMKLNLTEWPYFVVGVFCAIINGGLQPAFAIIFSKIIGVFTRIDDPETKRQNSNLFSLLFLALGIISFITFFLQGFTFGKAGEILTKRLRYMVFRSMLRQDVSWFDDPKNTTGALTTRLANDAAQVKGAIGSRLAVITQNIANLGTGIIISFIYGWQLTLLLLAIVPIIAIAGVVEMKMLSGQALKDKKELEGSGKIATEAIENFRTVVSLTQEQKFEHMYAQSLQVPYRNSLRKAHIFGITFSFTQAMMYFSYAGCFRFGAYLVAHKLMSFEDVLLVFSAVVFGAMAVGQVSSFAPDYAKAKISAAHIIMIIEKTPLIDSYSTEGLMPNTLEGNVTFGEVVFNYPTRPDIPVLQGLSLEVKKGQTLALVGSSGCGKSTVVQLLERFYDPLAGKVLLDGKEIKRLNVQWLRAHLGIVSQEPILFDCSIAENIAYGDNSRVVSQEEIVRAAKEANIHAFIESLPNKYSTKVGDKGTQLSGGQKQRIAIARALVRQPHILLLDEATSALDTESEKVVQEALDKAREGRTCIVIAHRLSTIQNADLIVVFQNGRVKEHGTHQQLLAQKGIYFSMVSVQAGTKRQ

[9] = tested on: SW-620; experiment: Reversal of resistance to paclitaxel-induced cytotoxicity in human SW-620/AD300 cells assessed as reduction in paclitaxel IC50 at 1 uM preincubated for 4 hrs followed by paclitaxel addition and measured after 72 hrs by MTT assay (reference value: 4.23 +/- 0.50 uM); assay type: functional, cell-based
[10] = tested on: SW-620; experiment: Reversal of resistance to paclitaxel-induced cytotoxicity in human SW-620/AD300 cells assessed as reversal fold at 1 uM preincubated for 4 hrs followed by paclitaxel addition and measured after 72 hrs by MTT assay relative to paclitaxel; assay type: functional; details: time 76 hrs
[11] = tested on: SW-620; experiment: Antitumor activity against human SW-620/AD300 cells xenografted in BALB/c nude mouse assessed as increase in cells with nuclear pyknosis at 30 mg/kg/day, ig administered for 21 days in presence of paclitaxel by TUNEL staining based fluorescence microscopy; assay type: functional, organism-based; details: time 21.0 day
[12] = tested on: HEK293; experiment: Reversal of resistance to paclitaxel-induced cytotoxicity in human HEK293/pcDNA3.1 cells assessed as reversal fold at 2 uM preincubated for 4 hrs followed by paclitaxel addition and measured after 72 hrs by MTT assay; assay type: functional; details: time 76 hrs
[13] = Volume of distribution at steady state in Sprague-Dawley rat at 10 mg/kg, iv measured up to 24 hrs by LC-MS/MS analysis; assay type: ADME, organism-based; details: in vivo, read-out: Vdss
[14] = tested on: KB 3-1; experiment: Reversal of resistance to paclitaxel-induced cytotoxicity in human KB 3-1 cells assessed as reduction in paclitaxel IC50 at 2 uM preincubated for 4 hrs followed by paclitaxel addition and measured after 72 hrs by MTT assay (reference value: 4.54 +/- 1.59 nM); assay type: functional, cell-based
[15] = tested on: SW-620; experiment: Effect on subcellular localization of ABCB1 in human SW-620/AD300 cells at 2 uM measured after 72 hrs by Hoechst 33258 staining based immunofluorescence assay; assay type: functional, cell-based
[16] = tested on: KB-C2; experiment: Reversal of resistance to paclitaxel-induced cytotoxicity in human KB-C2 cells assessed as reduction in paclitaxel IC50 at 2 uM preincubated for 4 hrs followed by paclitaxel addition and measured after 72 hrs by MTT assay (reference value: 1886.37 +/- 243.05 nM); assay type: functional, cell-based
[17] = tested on: KB 3-1; experiment: Reversal of resistance to paclitaxel-induced cytotoxicity in human KB 3-1 cells assessed as reversal fold at 1 uM preincubated for 4 hrs followed by paclitaxel addition and measured after 72 hrs by MTT assay relative to paclitaxel; assay type: functional; details: time 76 hrs
[18] = tested on: Mus musculus; experiment: Toxicity in BALB/c mouse xenografted with human SW-620/AD300 cells assessed as change in body weight at 30 mg/kg/day, ig administered 21 days; assay type: organism-based; details: in vivo, po, 504 h, time 21 day
[19] = tested on: HEK293; experiment: Reversal of resistance to paclitaxel-induced cytotoxicity in human HEK293/pcDNA3.1 cells assessed as reversal fold at 1 uM preincubated for 4 hrs followed by paclitaxel addition and measured after 72 hrs by MTT assay; assay type: functional; details: time 76 hrs
[20] = tested on: SW-620; experiment: Reversal of resistance to paclitaxel-induced cytotoxicity in human SW-620 cells assessed as reduction in paclitaxel IC50 at 1 uM preincubated for 4 hrs followed by paclitaxel addition and measured after 72 hrs by MTT assay (reference value: 7.69 +/- 2.78 nM); assay type: functional, cell-based
[21] = AUCinfinity in Sprague-Dawley rat at 10 mg/kg, iv measured up to 24 hrs by LC-MS/MS analysis; assay type: ADME, organism-based; design: dose 10 mg/kg, time < 24 hrs, route iv; details: in vivo
[22] = tested on: SW-620; experiment: Antitumor activity against human SW-620/AD300 cells xenografted in BALB/c nude mouse assessed as tumor growth inhibition at 30 mg/kg/day, ig administered for 21 days in presence of paclitaxel; assay type: functional; design: scale not given: the % may be the effect or the level left; details: time 21 day
[23] = tested on: SW-620; experiment: Reversal of resistance to paclitaxel-induced cytotoxicity in human SW-620/AD300 cells assessed as reversal fold at 2 uM preincubated for 4 hrs followed by paclitaxel addition and measured after 72 hrs by MTT assay relative to paclitaxel; assay type: functional; details: time 76 hrs
[24] = MRTinfinity in Sprague-Dawley rat at 10 mg/kg, iv measured up to 24 hrs by LC-MS/MS analysis; assay type: ADME, organism-based; details: in vivo
[25] = Half life in Sprague-Dawley rat at 10 mg/kg, iv measured up to 24 hrs by LC-MS/MS analysis; assay type: ADME, organism-based; details: in vivo
[26] = tested on: HEK293; experiment: Reversal of resistance to paclitaxel-induced cytotoxicity in human HEK293/pcDNA3.1 cells assessed as reduction in paclitaxel IC50 at 2 uM preincubated for 4 hrs followed by paclitaxel addition and measured after 72 hrs by MTT assay (reference value: 1.93 +/- 0.06 nM); assay type: functional, cell-based
[27] = tested on: Mus musculus; experiment: Hepatotoxicity in BALB/c mouse xenografted with human SW-620/AD300 cells at 30 mg/kg/day, ig administered for 21 days in presence of paclitaxel; assay type: toxicity, organism-based; details: in vivo, po, 504 h, time 21 day
[28] = tested on: HEK293; experiment: Reversal of resistance to paclitaxel-induced cytotoxicity in human HEK293/ABCB1 cells assessed as reversal fold at 2 uM preincubated for 4 hrs followed by paclitaxel addition and measured after 72 hrs by MTT assay relative to paclitaxel; assay type: functional; details: time 76 hrs
[29] = tested on: SW-620; experiment: Antitumor activity against human SW-620/AD300 cells xenografted in BALB/c nude mouse assessed as increase in cells with vacuoles at 30 mg/kg/day, ig administered for 21 days in presence of paclitaxel by TUNEL staining based fluorescence microscopy; assay type: functional, organism-based; details: time 21.0 day

## Cc1cc(Nc2ccc(C(=O)/C=C/c3ccc4ccccc4c3)cc2)n2nc(SCc3nc4ccccc4[nH]3)nc2n1
[1]
  fold change (FC): 1.29
[2]
  fold change (FC): 1.06
[3]
  Activity: Active
[4]
  fold change (FC): 1.1
[5]
  fold change (FC): 513.99
[6]
  fold change (FC): 9.92
[7]
  Activity: Non-Toxic
[8]
  Activity: Active
[9]
  IC50: 28.1 nM
[10]
  fold change (FC): 150.38
[11]
  Activity: Active
[12]
  fold change (FC): 1.47
[13]
  Vd: 0.114 L/kg
[14]
  IC50: 3.53 nM
[15]
  Activity: Active
[16]
  IC50: 3.67 nM
[17]
  fold change (FC): 1.11
[18]
  Activity: Non-Toxic
[19]
  fold change (FC): 1.14
[20]
  IC50: 7.19 nM
[21]
  AUC(0-inf): 9450 ng·h/mL
[22]
  Activity: 59%
[23]
  fold change (FC): 846
[24]
  MRT inf: 6.42 min
[25]
  half-life: 85.8 min
[26]
  IC50: 1.31 nM
[27]
  Activity: Non-Toxic
[28]
  fold change (FC): 24.84
[29]
  Activity: Active
